The results in this text go back to patent US20190225650A1, “PEPTIDOMIMETIC MACROCYCLES AND USE THEREOF IN REGULATING HIF1ALPHA” (AILERON THERAPEUTICS, INC., priority 2013, published 2019).

The structures appear in SMILES notation. Bridge positions count the residues as written; N and C are the ends. Square brackets hold non-standard residues; d marks the D form. Peptide text beside a SMILES is read from it. S5 = C=CCCC[C@](C)(N)C(=O)O; Nle = CCCC[C@H](N)C(=O)O Where only a bound is given, the exact number is not on record here.

Usually EC50 stands for the midpoint of the concentration-response curve.

The subject of this experiment is HRE-bla ME-180 cells. Put plainly: Reporter gene assay (HRE-bla ME-180 HIF reporter, GeneBLAzer). Format: cell-based, human. The note with it: for EC50: 24 hour normoxia. An outline of the steps: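 A FRET β-lactamase readout of HIF transcription was used. After compound treatment in 0.3% DMSO/media under normoxic conditions, 20 μl of 6× LiveBLAzer-FRET B/G (CCF4-AM) substrate was added. Plates sat 3 hr at room temperature in the dark and were read at 409 Ex/460Em and 409Ex/530Em on a Synergy 2. Inhibition was compared against DMSO vehicle controls, with chetomin as positive control.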
On the technique in general: A reporter such as luciferase makes a cellular process visible.

As to `CCCC[C@H](NC(=O)[C@H](CC(C)C)NC(=O)[C@@H](NC(=O)[C@H](CCC(=O)O)NC(=O)[C@H](CCC(=O)O)NC(=O)[C@H](CC(=O)O)NC(=O)[C@@H](NC(=O)[C@H](Cc1ccccc1)NC(C)=O)[C@@H](C)CC)C(C)C)C(=O)N[C@@]1(C)CCCC=CCCC[C@@](C)(C(=O)N[C@@H](CCCC)C(=O)N[C@@H](C)C(=O)N[C@@H](CC(C)C)C(=O)N[C@@H](CC(=O)O)C(=O)N[C@@H](CCCNC(=N)N)C(=O)N[C@H](C(=O)N[C@@H](CCC(=O)O)C(N)=O)[C@@H](C)CC)NC(=O)[C@H]([C@@H](C)CC)NC(=O)[C@H](C(C)C)NC(=O)[C@H](CC(C)C)NC1=O` [SP-43] (Ac-FIDEEVL[Nle][S5]LVI[S5][Nle]ALDRIE-NH2; staple 9-13), the “18 h Avg % max inhibition at top conc (HIF Rptr-24 hrs normoxia) (μM)” value (“18 h Avg % max inhibition at top conc” for short) was “+++ (≤25 but <50: +++)” and the EC50 is greater than 30 µM.

`CCCC[C@H](NC(=O)[C@H](CC(C)C)NC(=O)[C@@H](NC(=O)[C@H](CCC(=O)O)NC(=O)[C@H](CCC(=O)O)NC(=O)[C@H](CC(=O)O)NC(=O)[C@@H](NC(=O)[C@H](Cc1ccccc1)NC(C)=O)[C@@H](C)CC)C(C)C)C(=O)N[C@@]1(C)CCCC=CCCC[C@@](C)(C(=O)N[C@@H](CCCC)C(=O)N[C@@H](C)C(=O)N[C@@H](CCC(=O)O)C(=O)N[C@@H](CC(=O)O)C(=O)N[C@@H](CCCNC(=N)N)C(=O)N[C@H](C(N)=O)[C@@H](C)CC)NC(=O)[C@H]([C@@H](C)CC)NC(=O)[C@H](C(C)C)NC(=O)[C@H](CC(C)C)NC1=O` [SP-40] (Ac-FIDEEVL[Nle][S5]LVI[S5][Nle]AEDRI-NH2; staple 9-13): the “18 h Avg % max inhibition at top conc” value is “+ (<10: +)” and the EC50 is greater than 30 µM.

Regarding `CCCC[C@H](NC(=O)[C@H](CC(C)C)NC(=O)[C@@H](NC(=O)[C@H](CCC(=O)O)NC(=O)[C@H](CCC(=O)O)NC(=O)[C@H](CC(=O)O)NC(=O)[C@@H](NC(=O)[C@H](CO)NC(C)=O)[C@@H](C)CC)C(C)C)C(=O)N[C@@]1(C)CCCC=CCCC[C@@](C)(C(=O)N[C@@H](CCCC)C(=O)N[C@@H](C)C(=O)N[C@@H](CC(C)C)C(=O)N[C@@H](CC(=O)O)C(=O)N[C@@H](CCCNC(=N)N)C(=O)N[C@H](C(N)=O)[C@@H](C)CC)NC(=O)[C@H]([C@@H](C)CC)NC(=O)[C@H](C(C)C)NC(=O)[C@H](CC(C)C)NC1=O` [SP-44] (Ac-SIDEEVL[Nle][S5]LVI[S5][Nle]ALDRI-NH2; staple 9-13), the “18 h Avg % max inhibition at top conc” value is “+++ (≤25 but <50: +++)” and the EC50 fell in the range of 15 to 30 µM.

For the compound `CC[C@H](C)[C@H](NC(=O)[C@H](Cc1ccccc1)NC(C)=O)C(=O)N[C@@H](CC(=O)O)C(=O)N[C@@H](CCC(=O)O)C(=O)N[C@@H](CCC(=O)O)C(=O)N[C@H](C(=O)N[C@@H](CC(C)C)C(=O)N[C@@H](C)C(=O)N[C@@]1(C)CCCC=CCCC[C@@](C)(C(=O)N[C@@H](C)C(=O)N[C@@H](C)C(=O)N[C@@H](CC(C)C)C(=O)N[C@@H](CC(=O)O)C(N)=O)NC(=O)[C@H]([C@@H](C)CC)NC(=O)[C@H](C(C)C)NC(=O)[C@H](CC(C)C)NC1=O)C(C)C` [SP-60] (Ac-FIDEEVLA[S5]LVI[S5]AALD-NH2; staple 9-13), the “18 h Avg % max inhibition at top conc” value was “+ (<10: +)” and the EC50 was greater than 30 µM.

For the compound `CCCC[C@H](NC(=O)[C@H](CC(C)C)NC(=O)[C@H](CO)NC(=O)[C@H](CCC(=O)O)NC(=O)[C@H](CCC(=O)O)NC(=O)[C@H](CC(=O)O)NC(=O)[C@@H](NC(=O)[C@H](Cc1ccccc1)NC(C)=O)[C@@H](C)CC)C(=O)N[C@@]1(C)CCCC=CCCC[C@@](C)(C(=O)N[C@@H](CCCC)C(=O)N[C@@H](C)C(=O)N[C@@H](CC(C)C)C(=O)N[C@@H](CC(=O)O)C(=O)N[C@@H](CCCNC(=N)N)C(=O)N[C@H](C(N)=O)[C@@H](C)CC)NC(=O)[C@H]([C@@H](C)CC)NC(=O)[C@H](C(C)C)NC(=O)[C@H](CC(C)C)NC1=O` [SP-48] (Ac-FIDEESL[Nle][S5]LVI[S5][Nle]ALDRI-NH2; staple 9-13), the “18 h Avg % max inhibition at top conc” value is on record as “+++ (≤25 but <50: +++)” and the concentration giving a half-maximal response (EC50) fell in the range of 15 to 30 µM.

In the case of `CCCC[C@H](NC(=O)[C@H](CC(C)C)NC(=O)[C@@H](NC(=O)[C@H](CCC(=O)O)NC(=O)[C@H](CCC(=O)O)NC(=O)[C@H](CC(=O)O)NC(=O)[C@@H](NC(=O)[C@H](Cc1ccccc1)NC(C)=O)[C@@H](C)CC)C(C)C)C(=O)N[C@@]1(C)CCCC=CCCC[C@@](C)(C(=O)N[C@@H](CCCC)C(=O)N[C@@H](C)C(=O)N[C@@H](CC(C)C)C(=O)N[C@@H](CC(=O)O)C(=O)N[C@@H](CCCNC(=N)N)C(N)=O)NC(=O)[C@H]([C@@H](C)CC)NC(=O)[C@H](C(C)C)NC(=O)[C@H](CC(C)C)NC1=O` [SP-27] (Ac-FIDEEVL[Nle][S5]LVI[S5][Nle]ALDR-NH2; staple 9-13), the “18 h Avg % max inhibition at top conc” value is recorded as “++++ (≥50: ++++)” and the EC50 lay in the range of 5 to 15 µM.

On to `CCCC[C@H](NC(=O)[C@]1(C)CCCC=CCCC[C@](C)(NC(=O)[C@H](C)NC(=O)[C@H](CC(C)C)NC(=O)[C@@H](NC(=O)[C@H](CCC(=O)O)NC(=O)[C@H](CCC(=O)O)NC(=O)[C@H](CC(=O)O)NC(=O)[C@@H](NC(=O)[C@H](Cc2ccccc2)NC(C)=O)[C@@H](C)CC)C(C)C)C(=O)N[C@@H](CC(C)C)C(=O)N[C@@H](C(C)C)C(=O)N[C@@H]([C@@H](C)CC)C(=O)N1)C(=O)N[C@@H](C)C(=O)N[C@@H](CC(C)C)C(=O)N[C@@H](CC(=O)O)C(=O)N[C@@H](CCCNC(=N)N)C(=O)N[C@H](C(N)=O)[C@@H](C)CC` [SP-16] (Ac-FIDEEVLA[S5]LVI[S5][Nle]ALDRI-NH2; staple 9-13), for which the “18 h Avg % max inhibition at top conc” value was “++++ (≥50: ++++)” and the 50% effective concentration (EC50) was no more than 5 µM.

As for `CCCC[C@H](NC(=O)[C@H](CC(C)C)NC(=O)[C@@H](NC(=O)[C@H](CCC(=O)O)NC(=O)[C@H](CCC(=O)O)NC(=O)[C@H](CC(=O)O)NC(=O)[C@@H](NC(=O)[C@H](Cc1ccccc1)NC(C)=O)[C@@H](C)CC)C(C)C)C(=O)N[C@@]1(C)CCCC=CCCC[C@@](C)(C(=O)N[C@@H](CCCC)C(=O)N[C@@H](C)C(=O)N[C@@H](CC(C)C)C(=O)N[C@@H](CC(=O)O)C(=O)N[C@@H](C)C(=O)N[C@H](C(N)=O)[C@@H](C)CC)NC(=O)[C@H]([C@@H](C)CC)NC(=O)[C@H](C(C)C)NC(=O)[C@H](CC(C)C)NC1=O` [SP-24] (Ac-FIDEEVL[Nle][S5]LVI[S5][Nle]ALDAI-NH2; staple 9-13), the “18 h Avg % max inhibition at top conc” value is reported as “++++ (≥50: ++++)” and the EC50 was 5 to 15 µM.

Take `CC[C@H](C)[C@H](NC(=O)[C@H](CCCNC(=N)N)NC(=O)[C@H](CC(=O)O)NC(=O)[C@H](CC(C)C)NC(=O)CNC(=O)[C@H](CCSC)NC(=O)[C@]1(C)CCCC=CCCC[C@](C)(NC(=O)[C@H](CCSC)NC(=O)[C@H](CC(C)C)NC(=O)[C@@H](NC(=O)[C@H](CCC(=O)O)NC(C)=O)C(C)C)C(=O)N[C@@H](CC(C)C)C(=O)N[C@@H](C(C)C)C(=O)N[C@@H]([C@@H](C)CC)C(=O)N1)C(=O)N[C@@H](CCCCN)C(=O)N[C@@H](CCC(=O)O)C(=O)N[C@@H](CC(C)C)C(=O)N1CCC[C@H]1C(=O)N[C@@H](CCC(=O)O)C(=O)N[C@@H](CC(C)C)C(=O)N[C@@H](Cc1c[nH]c2ccccc12)C(=O)N[C@@H](CC(C)C)C(N)=O` [SP-89] (Ac-EVLM[S5]LVI[S5]MGLDRIKELPELWL-NH2; staple 5-9): the “18 h Avg % max inhibition at top conc” value is reported as “+++ (≤25 but <50: +++)” and the EC50 was 5 to 15 µM.
